Assay results from patent publication US9067896B2, “Crystalline forms of 3-(2,6-dichloro-3,5-dimethoxy-phenyl)-1-{6-[4-(4-ethyl-piperazin-1-yl) -phenylamino]-pyrimidin-4-yl}-1-methyl-urea and salts thereof” (Novartis AG, priority 2009, dated 2015).
Counter-ions that a name gives are not always drawn.

How the values were obtained:
Type in all cases: physicochemical
[1] = Hygroscopicity from DVS sorption/desorption isotherms; settings: for weight gain due to water absorption (DVS): listed as hydrochloride salt
Experimental: Hygroscopicity was measured from sorption/desorption isotherms using Surface Measurement System DVS-1 at 25±0.5° C. Samples were evaluated at various humidities including 75%, 85%, and 95%.
The free base (anhydrous and monohydrate) and its phosphate salt (form A) were subjected to sorption and desorption cycle using a VTI brand instrument. The solids were collected after the experiment and analyzed. […] The DVS plots are shown in FIGS. 4A (free base, anhydrous), 4B (phosphate salt (form A) and 4C (free base, monohydrate). The maximum water uptake for the phosphate salt (form A) was less than 2% (i.e. 0.7%) at 25° C. up to 95% relative humidity (rh) (see Table 9). The maximum water uptake for the monohydrate was less than 1.4% at 25° C. up to 95% RH. The monohydrate with an approximate water content of 3% could not be completely dried during the experiment but the water that could be removed was reversibly reabsorbed. The plateau of existence of the monohydrate form is found to be within 10% and 95% RH with a slight hysteresis at the second desorption cycle.

[2] = Determination of solubility (equilibration in solvent, filtrate by HPLC); settings: for Solubility: initial solubility test
Experimental: Excess free base (free base of Formula I), its phosphate salt (the monophosphoric acid salt of the free base), or another acid salt was equilibrated in solvents for 1 day at 25±0.5° C. The resultant slurry was filtered and the filtrate used for solubility determination by HPLC.
Solubility of the monohydrate of the anhydrous and monohydrate free base was measured in various aqueous media (e.g., pH 6.8 buffer, pH 4.5 buffer, pH 1 buffer), including simulated and actual human fluids.
The human fluids were collected from 12 human subjects.
Solubility studies of the phosphate salt were undertaken in aqueous media and in human fluids at 24 hours.

[3] = Intrinsic dissolution rate; settings: 37° C., disc 50 rpm, 290.2 nm
Experimental: The intrinsic dissolution rate measurements were carried out in 0.5 cm^2 VanKel punch and die assemblies at a pellet pressure of 2000 pounds. […]
The intrinsic dissolution rate was determined for the phosphate salt in water, pH=6.8 and 0.1N HCl, and for the free base monohydrate in pH=6.8, 4.5 and 0.1N HCl. The measurements were carried out on a VanKel instrument using a Cary UV/VIS spectrophotometer (Table 2).

For `CCN1CCN(c2ccc(Nc3cc(N(C)C(=O)Nc4c(Cl)c(OC)cc(OC)c4Cl)ncn3)cc2)CC1` [Free base (monohydrate)], the maximum water uptake ([1]; 25° C. up to 95% relative humidity) was “less than 1.4%”, the “Solubility in mg/ml after 24 h” value ([2]; Fasted State Simulated Intestinal Fluid (FaSSIF), listed as Monohydrate Free Base) was 0.003 mg/mL and the “Solubility in mg/ml after 24 h” value ([2]; Fed State Simulated Intestinal Fluid (FeSSIF), listed as Monohydrate Free Base) was 0.459 mg/mL. The “Solubility in mg/ml after 24 h” value ([2]; HIF, fed, listed as Monohydrate Free Base) was 0.040 mg/mL, the “Solubility in mg/ml after 24 h” value ([2]; Human gastric fluid (HGF), listed as Monohydrate Free Base) was 0.002 mg/mL and the “Solubility in mg/ml after 24 h” value ([2]; Human intestinal fluid (HIF) fasted, listed as Monohydrate Free Base) was 0.019 mg/mL. The “Solubility in mg/ml after 24 h” value ([2]; Simulated Gastric Fluid (SGF), listed as Monohydrate Free Base) was 0.020 mg/mL, the “Solubility in mg/ml after 24 h” value ([2]; pH 1 HCl, listed as Monohydrate Free Base) was 0.103 mg/mL and the “Solubility in mg/ml after 24 h” value ([2]; ph 4.5 Acetate, listed as Monohydrate Free Base) was 0.054 mg/mL. For the same compound, the “Intrinsic DR value” ([3]; HCl 0.1N) was 0.3132 mg/min/cm^2, the “Intrinsic DR value” ([3]; pH = 4.5) was 0.0001 mg/min/cm^2 and the “Intrinsic DR value” ([3]; pH = 6.8) was 0.0026 mg/min/cm^2.

In the case of `CCN1CCN(c2ccc(Nc3cc(N(C)C(=O)Nc4c(Cl)c(OC)cc(OC)c4Cl)ncn3)cc2)CC1` [Hydrochloride Salt], the “weight gain due to water absorption (DVS)” value ([1]; 75% RH) is reported as “about 4.1%”, the “weight gain due to water absorption (DVS)” value ([1]; 95% RH) is reported as “about 16.9%” and the “hygroscopicity (in words)” value ([1]; listed as hydrochloride) is reported as “hygroscopic”. The “Solubility in mg/ml after 24 h” value ([2]; Fasted State Simulated Intestinal Fluid (FaSSIF)) was 0.003 mg/mL, the “Solubility in mg/ml after 24 h” value ([2]; Fed State Simulated Intestinal Fluid (FeSSIF)) was 0.248 mg/mL and the “Solubility in mg/ml after 24 h” value ([2]; HIF, fed) was 0.0109 mg/mL. For the same compound, the “Solubility in mg/ml after 24 h” value ([2]; Human gastric fluid (HGF)) was 0.0348 mg/mL, the “Solubility in mg/ml after 24 h” value ([2]; Human intestinal fluid (HIF) fasted) was 0.0154 mg/mL and the “Solubility in mg/ml after 24 h” value ([2]; Simulated Gastric Fluid (SGF)) was 0.073 mg/mL. For the same compound, the “Solubility in mg/ml after 24 h” value ([2]; pH 1 HCl) was 0.075 mg/mL and the “Solubility in mg/ml after 24 h” value ([2]; ph 4.5 Acetate) was 0.822 mg/mL.

In the case of Malonate, the “weight gain by DVS” value ([1]; over the humidities tested (75%, 85%, 95% RH)) is reported as “about 10%”.

For Methanesulfonate, the “Solubility” value ([2]; Water) was 870 µg/mL and the “Solubility” value ([2]; pH3 Buffer) was 3 µg/mL.
